{"source": "patent US11241483B2", "about": "“Methods of treating mild brain injury” (The Regents of the University of California, priority 2014, dated 2022)", "key": {"[1]": {"tested_on": "oxidative burst in inflammatory cells (reactive oxygen species)", "assay": "Oxidative burst (ROS, DHR 123 flow cytometry) in leukocytes isolated from brain tissue after mild brain injury (controlled cortical impact)", "format": "in vivo, C57/B6 mice", "experimental": "FIG. 1 depicts principle of assaying oxidative burst within inflammatory cells. Dihydrorhodamine 123 (DHR 123) diffuses across the cell membrane. When it encounters reactive oxygen species (ROS), DHR 123 is oxidized and fluoresces green. The fluorescence is then measured and presented as arbitrary fluorescence unit (AFU), wherein higher intensity means greater oxidative burst and, therefore greater concentration of amount of ROS (See Chen, et al., Measurement of oxidative burst in neutrophils,” Methods Mol Biol., 844: 115-124 (2012); which is incorporated herein by reference in its entirety).\nGhrelin administration reduces oxidative burst in inflammatory cells following mBI. Since no well-accepted animal model exists for concussions, a very small cerebral lesion that closely mimics mBI is used as a model of mBI. […] Anesthesia is assessed by paw pinch reflex. […]\nAnimals are separated into three treatment groups: 1) Sham, 2) mBI, and 3) mBI plus ghrelin. […] The fluorescence is then measured and presented as arbitrary fluorescence unit (AFU), wherein higher intensity means greater oxidative burst and, therefore greater concentration or amount of ROS. […] Oxidative burst, which is a marker for ROS, can be measured by flow cytometry (e.g., FL1 channel with 488-nm laser)."}, "[2]": {"tested_on": "blood brain barrier (BBB) vascular permeability; Aquaporin 4 (AQP-4)", "assay": "Ghrelin treatment of TBI animals (background statement): BBB vascular permeability and Aquaporin 4 expression", "format": "in vivo", "conditions": "following TBI"}}, "note": "“Also recorded” adds a separate entry of the source. Ends that are not written are not given here."}
{"substance": "Gly-Ser-Ser-Phe-Leu-Ser-Pro-Glu-His-Gln-Arg-Val-Gln-Gln-Arg-Lys-Glu-Ser-Lys-Lys-Pro-Pro-Ala-Lys-Leu-Gln-Pro-Arg (SEQ ID NO. 1) (GSSFLSPEHQRVQQRKESKKPPAKLQPR; not fully specified (residues 2, 3); printed as Gly-Ser-Ser-Phe-Leu-Ser-Pro-Glu-His-Gln-Arg-Val-Gln-Gln-Arg-Lys-Glu-Ser-Lys-Lys-Pro-Pro-Ala-Lys-Leu-Gln-Pro-Arg; also: octanoyl on Ser2 and/or Ser3 stated only as an option; listed as Homo sapiens) [ghrelin, 28-amino acid peptide, neuroendocrine hormone, endogenous ligand for growth hormone secretagogue receptor; obtainable from Phoenix Pharmaceuticals]", "values": [{"measurement": "Oxidative burst of ipsilateral whole brain following mild BI (mean fluorescence intensity)", "setting": "[1]; mild BI+ghrelin (2 doses), subcutaneous 10 μg following mBI and 10 μg 1 hour after, vs 7963 AFU±2900 mild BI and 4624 AFU±1858 sham, n=5, p=0.048", "value": 3257, "unit": "AFU"}, {"measurement": "Oxidative burst in inflammatory cells following mBI (FIG. 2, peak shift)", "setting": "[1]; subcutaneous ghrelin vs untreated mBI, n=3 animals in each group", "value": "reduced the oxidative burst; also recorded: lower oxidative burst"}, {"measurement": "Post-TBI up-regulation of Aquaporin 4 (AQP-4)", "setting": "[2]", "value": "prevents post-TBI up-regulation of Aquaporin 4"}]}
